Source: patent US5258382A, “Tetrahydropyrrolo[1,2-a]pyrazine-4-spiro-3'-pyrrolidine derivatives, processes for the preparation thereof and pharmaceutical compositions containing the same” (Dainippon Pharmaceutical Co., Ltd., priority 1991, dated 1993)
Read-outs that look alike come from different tables or passages of the source.

Key:
[1] = system: sorbitol accumulation; assay: Inhibitory activity on sorbitol accumulation (in vivo), sciatic nerve of streptozotocin-diabetic rats; set-up: species or system Male Wistar rats; details: for Inhibition (%) of sorbitol accumulation: oral, once a day for 5 days, sciatic nerve, 4 hours after final administration; for inhibitory activity on sorbitol accumulation relative to (±)-sorbinil: compared with (±)-sorbinil; for duration of effect: rat, in vivo
Description: Male Wistar rats (200-250 g) were used in groups of 4 animals each. The rats were made diabetic by single i.v. injection of streptozotocin (40 mg/kg) freshly dissolved in physiological saline.
From one week after the induction of diabetes, the rats were orally given test compounds, suspended in 0.5% tragacanth solution, once a day for 5 days. […] The activity of test compounds was expressed as the inhibition percent of sorbitol accumulation ar given doses, which was calculated according to the following equation.
Inhibition %=(S-T)/(S-N)×100
S: Sorbitol content in sciatic nerve from diabetic control
T: Sorbitol content in sciatic nerve from diabetic rats given test compounds
N: Sorbitol content in sciatic nerve from normal rats.

[2] = Acute toxicity, oral; details: 1 g/kg oral, suspended in 0.5% tragacanth; observed for 7 days
Text: Male ddY mice (18-25 g) were used in groups of 5 animals each. The compounds of Examples 1 (21) and 22, suspended in 0.5% tragacanth solution, were orally administered at a dose of 1 g/kg to the animals.

[3] = molecular target: T1, Aldose reductase (Sus scrofa, UniProt P80276); assay: Aldose reductase inhibitory activity (in vitro); format: biochemical, porcine
T1 construct: Lenses isolated from porcine eyes (Tokyo Sibaura Zouki Co., Ltd., Japan) were homogenized; tissue Tokyo Sibaura Zouki Co., Ltd., Japan (porcine eyes); host or cells: porcine lens
Description: Lenses isolated from porcine eyes (Tokyo Sibaura Zouki Co., Ltd., Japan) were homogenized with 5 mM phosphate buffer (pH 7.4) containing 2 mM mercaptoethanol, and centrifuged at 10,200 g for 10 minutes. The supernatant was sequentially precipitated with ammonium sulfate at 30%, 40% and 60% saturation. The precipitate at 60% saturation was dissolved in a homogenizing buffer and used as a crude enzyme preparation. The unit of enzyme activity was defined as the amount of enzyme which oxidized 1 μmoles of NADPH/minute under the following assay condition.
The standard reaction mixture was composed of 100 mM phosphate buffer (pH 6.5), 0.2 mM NADPH, 1.5 mM D,L-glyceraldehyde, 0.4M lithium sulfate, enzyme solution (7.0 mU/ml) and test compounds at various concentrations. The reaction mixture was incubated at 37° C., and the decrease in absorbance at 340 nm was monitored by a spectrophotometer (Hitachi 150-20). The enzyme activity was calculated based upon the rate of decrease in the absorbance over a period of 1 minute from 1 minute after the onset of the enzyme reaction.

[4] = crude enzyme from porcine lenses, D,L-glyceraldehyde 1.5 mM, NADPH 0.2 mM, pH 6.5, 37° C., read-out: IC50 (aldose reductase inhibitory activity)

Compound | IC50 [3, 4] [nM] | Inhibition (%) of sorbitol accumulation ([1]; 30 mg/kg/day) [%] | inhibitory activity on sorbitol accumulation relative to (±)-sorbinil [1] | other results
O=C1NC(=O)C2(CCOc3ccc(F)cc32)N1 (racemic) [(±)-Sorbinil, 6-fluoro-2,3-dihydrospiro[4H-1-benzopyran-4,4'-imidazolidine]-2',5'-dione, reference compound] | – | 106.9 | – | Inhibition (%) of sorbitol accumulation ([1]; 3.0 mg/kg/day): 60.7%
O=C1CC2(C(=O)N1)C(=O)N(Cc1ccc(Br)cc1F)C(=O)c1cccn12 (single isomer, unassigned) [Example 22, an enantiomer of 2-(4-bromo-2-fluorobenzyl)-[1,2,3,4-tetrahydropyrrolo[1,2-a]pyrazine-4-spiro-3'-pyrrolidine]-1,2',3,5'-tetrone] | – | – | equipotent to or more potent than (±)-sorbinil | Inhibition (%) of sorbitol accumulation ([1]; 0.3 mg/kg/day): 77.6%; Inhibition (%) of sorbitol accumulation ([1]; 1.0 mg/kg/day): 107.3%; duration of effect [1]: long-lasting; mortality [2]: None of the mice died during this period; IC50 [3]: 39 nM
CC(=C\c1ccccc1)/C=C1/SC(=S)N(CC(=O)O)C1=O [Epalrestat, (E,E)-5-(2-methyl-3-phenyl-2-propenylidene) 4-oxo-2-thioxo-3-thiazolidineacetic acid, reference compound] | – | – | – | Inhibition (%) of sorbitol accumulation ([1]; 200 mg/kg/day): 5.7%; IC50 [3]: 73 nM
O=C1CC2(C(=O)N1)C(=O)N(Cc1ccc(Br)cc1F)C(=O)c1cccn12 (centres unmarked) [Example 1, 2-(4-bromo-2-fluorobenzyl)-[1,2,3,4-tetrahydropyrrolo[1,2-a]pyrazine-4-spiro-3'-pyrrolidine]-1,2',3,5'-tetrone] | – | 114.6 | equipotent to or more potent than (±)-sorbinil | Inhibition (%) of sorbitol accumulation ([1]; 1.0 mg/kg/day): 104.7%; duration of effect [1]: long-lasting; mortality [2]: None of the mice died during this period; IC50 [3]: 50 nM
O=C1CC2(C(=O)N1)C(=O)N(Cc1ccccc1Cl)C(=O)c1cccn12 (centres unmarked) [Example 2, 2-(2-chlorobenzyl)-[1,2,3,4-tetrahydropyrrolo[1,2-a]pyrazine-4-spiro-3'-pyrrolidine]-1,2',3,5'-tetrone] | 33 | 97.1 | – | Inhibition (%) of sorbitol accumulation ([1]; 3.0 mg/kg/day): 30.5%
O=C1CC2(C(=O)N1)C(=O)N(Cc1ccccc1)C(=O)c1cccn12 (centres unmarked) [Example 3] | 99 | 69.1 | – | –
O=C1CC2(C(=O)N1)C(=O)N(Cc1cccc(Cl)c1)C(=O)c1cccn12 (centres unmarked) [Example 5] | 31 | 99.4 | equipotent to or more potent than (±)-sorbinil | Inhibition (%) of sorbitol accumulation ([1]; 3.0 mg/kg/day): 44.2%
O=C1CC2(C(=O)N1)C(=O)N(Cc1ccc(Cl)cc1)C(=O)c1cccn12 (centres unmarked) [Example 7] | 33 | 104.6 | equipotent to or more potent than (±)-sorbinil | Inhibition (%) of sorbitol accumulation ([1]; 3.0 mg/kg/day): 69.7%
O=C1CC2(C(=O)N1)C(=O)N(Cc1ccc(Br)cc1)C(=O)c1cccn12 (centres unmarked) [Example 8, 2-(4-bromobenzyl)-[1,2,3,4-tetrahydropyrrolo[1,2-a]pyrazine-4-spiro-3'-pyrrolidine]-1,2',3,5'-tetrone] | 47 | – | equipotent to or more potent than (±)-sorbinil | Inhibition (%) of sorbitol accumulation ([1]; 3.0 mg/kg/day): 104.7%
Cc1ccc(CN2C(=O)c3cccn3C3(CC(=O)NC3=O)C2=O)cc1 (centres unmarked) [Example 11] | 52 | 65.8 | – | –
COc1ccc(CN2C(=O)c3cccn3C3(CC(=O)NC3=O)C2=O)cc1 (centres unmarked) [Example 12] | 46 | – | – | –
O=C1CC2(C(=O)N1)C(=O)N(Cc1ccc([N+](=O)[O-])cc1)C(=O)c1cccn12 (centres unmarked) [Example 15] | 110 | 102.2 | – | Inhibition (%) of sorbitol accumulation ([1]; 3.0 mg/kg/day): 7.4%
O=C1CC2(C(=O)N1)C(=O)N(Cc1ccc(Cl)cc1F)C(=O)c1cccn12 (centres unmarked) [Example 16, 2-(4 chloro 2-fluorobenzyl)-[1,2,3,4-tetrahydropyrrolo[1,2-a]pyrazine-4-spiro-3'-pyrrolidine]-1,2',3,5'-tetrone] | 41 | – | equipotent to or more potent than (±)-sorbinil | Inhibition (%) of sorbitol accumulation ([1]; 1.0 mg/kg/day): 61.0%
O=C1CC2(C(=O)N1)C(=O)N(Cc1ccc(Cl)c(Cl)c1)C(=O)c1cccn12 (centres unmarked) [Example 24, 2-(3,4-dichlorobenzyl)-[1,2,3,4-tetrahydropyrrolo[1,2-a]pyrazine-4-spiro-3'-pyrrolidine]-1,2',3,5'-tetrone] | 23 | 111.8 | equipotent to or more potent than (±)-sorbinil | Inhibition (%) of sorbitol accumulation ([1]; 1.0 mg/kg/day): 70.9%
O=C1CC2(C(=O)N1)C(=O)N(Cc1ccc(Br)cc1F)C(=O)c1ccc(Cl)n12 (centres unmarked) [Example 27, 2-(4 bromo-2-fluorobenzyl)-6-chloro-[1,2,3,4-tetrahydropyrrolo[1,2-a]pyrazine-4-spiro-3'-pyrrolidine]-1,2',3,5-tetrone] | 35 | – | – | –

Second part, led by results:

IC50 [3, 4] [nM] | Compound | Inhibition (%) of sorbitol accumulation ([1]; 30 mg/kg/day) [%] | inhibitory activity on sorbitol accumulation relative to (±)-sorbinil [1] | other results
61 | O=C1CC2(C(=O)N1)C(=O)N(Cc1ccccc1F)C(=O)c1cccn12 (centres unmarked) [Example 4] | – | equipotent to or more potent than (±)-sorbinil | Inhibition (%) of sorbitol accumulation ([1]; 1.0 mg/kg/day): 47.2%; Inhibition (%) of sorbitol accumulation ([1]; 10 mg/kg/day): 73.5%
120 | O=C1CC2(C(=O)N1)C(=O)N(Cc1ccc(F)cc1)C(=O)c1cccn12 (centres unmarked) [Example 6] | 55.8 | – | –
80 | O=C1CC2(C(=O)N1)C(=O)N(Cc1ccc(C(F)(F)F)cc1)C(=O)c1cccn12 (centres unmarked) [Example 9] | – | – | –
72 | O=C1CC2(C(=O)N1)C(=O)N(Cc1ccc(F)cc1F)C(=O)c1cccn12 (centres unmarked) [Example 10] | 98.0 | – | Inhibition (%) of sorbitol accumulation ([1]; 3.0 mg/kg/day): 33.3%
110 | COc1ccc(CN2C(=O)c3cccn3C3(CC(=O)NC3=O)C2=O)cc1OC (centres unmarked) [Example 13] | – | – | –
52 | O=C1CC2(C(=O)N1)C(=O)N(Cc1ccccc1Br)C(=O)c1cccn12 (centres unmarked) [Example 17] | – | – | –
37 | O=C1CC2(C(=O)N1)C(=O)N(Cc1cccc(Br)c1)C(=O)c1cccn12 (centres unmarked) [Example 18] | – | – | –
50 | O=C1CC2(C(=O)N1)C(=O)N(Cc1ccc(Br)cc1F)C(=O)c1cc(Cl)cn12 (centres unmarked) [Example 19, 2-(4-bromo-2-fluorobenzyl)-7-chloro-[1,2,3,4-tetrahydropyrrolo[1,2-a]pyrazine-4-spiro-3'-pyrrolidine]-1,2',3,5'-tetrone] | – | – | –
100 | O=C1CC2(C(=O)N1)C(=O)N(Cc1ccc(Br)cc1F)C(=O)c1cc(Br)cn12 (centres unmarked) [Example 20, 7-bromo-2-(4-bromo-2-fluorobenzyl)-[1,2,3,4-tetrahydropyrrolo[1,2-a]pyrazine-4-spiro-3'-pyrrolidine]-1,2',3,5'-tetrone] | – | – | –
40 | O=C1CC2(C(=O)N1)C(=O)N(Cc1ccc(Br)cc1F)C(=O)c1ccc(Br)n12 (centres unmarked) [Example 26, 6-bromo-2-(4-bromo-2-fluorobenzyl)-[1,2,3,4-tetrahydropyrrolo[1,2-a]pyrazine-4-spiro-3'-pyrrolidine]-1,2',3,5'-tetrone] | – | – | –
